Data reported in ChEMBL document CHEMBL6078696, “Nanomolar activity of coumarin-3-thiosemicarbazones targeting Trypanosoma cruzi cruzain and the T. brucei cathepsin L-like protease” (Eur J Med Chem, 2025).

Legend:
[1] = Cytotoxicity against HEK293 cells at 50 uM incubated for 48 hrs by resazurin reduction assay relative to control; format: toxicity, cell-based; details: human, read-out: INH
[2] = Cytotoxicity against mouse C2C12 cells at 10 uM relative to control; format: toxicity, cell-based; details: read-out: INH
[3] = biological target: Cruzipain (Trypanosoma cruzi) (UniProt P25779); assay: Inhibition of recombinant Trypanosoma cruzi CRZ using Z-Phe-Arg-aminomethylcoumarin as substrate at 50 uM preincubated for 10 mins followed by substrate addition by fluorimetry relative to control
[4] = system: Trypanosoma cruzi; assay: Antitrypanosomal activity against intracellular Trypanosoma cruzi amastigotes infected in mouse C2C12 cells at 10 uM incubated for 48 hrs by DAPI staining based analysis relative to control; format: functional
[5] = system: Trypanosoma brucei; assay: Antitrypanosomal activity against Trypanosoma brucei trypomastigotes assessed as parasite growth inhibition at 50 uM incubated for 72 hrs by resazurin dye based assay relative to control; format: functional
[6] = system: Trypanosoma brucei; assay: Inhibition of recombinant Trypanosoma brucei CATL using Z-Phe-Arg-aminomethylcoumarin as substrate at 50 uM preincubated for 10 mins followed by substrate addition by fluorimetry relative to control
[7] = biological target: T1, Cruzipain (Trypanosoma cruzi, UniProt P25779); assay: Inhibition of recombinant Trypanosoma cruzi CRZ using Z-Phe-Arg-aminomethylcoumarin as substrate preincubated for 10 mins followed by substrate addition by fluorimetry
[8] = Cytotoxicity against HEK293 cells incubated for 48 hrs by resazurin reduction assay; format: toxicity, cell-based; details: human
[9] = Inhibition of recombinant Trypanosoma brucei CATL using Z-Phe-Arg-aminomethylcoumarin as substrate preincubated for 10 mins followed by substrate addition by fluorimetry
[10] = biological target: Cruzipain (Trypanosoma cruzi) (UniProt P25779); assay: Potency index, ratio of FN-27 IC50 to test compound IC50 recombinant Trypanosoma cruzi CRZ
[11] = system: Trypanosoma brucei; assay: Potency index, ratio of FN-27 IC50 to test compound IC50 recombinant Trypanosoma brucei CATL
[12] = Selectivity index, ratio of CC50 for cytotoxicity against HEK293 cells to EC50 for Trypanosoma brucei trypomastigotes; format: toxicity, cell-based; details: human, read-out: Ratio CC50/EC50
[13] = system: Trypanosoma brucei; assay: Antitrypanosomal activity against Trypanosoma brucei trypomastigotes assessed as parasite growth inhibition incubated for 72 hrs by resazurin dye based assay; format: functional, organism-based
[14] = Inhibition of Trypanosoma brucei CATL
[15] = system: Trypanosoma cruzi; assay: Antitrypanosomal activity against Trypanosoma cruzi amastigotes infected in cell model; format: functional, organism-based
[16] = biological target: T1, Cruzipain; assay: Inhibition of Trypanosoma cruzi CRZ

T1 sequence (P25779 whole entry): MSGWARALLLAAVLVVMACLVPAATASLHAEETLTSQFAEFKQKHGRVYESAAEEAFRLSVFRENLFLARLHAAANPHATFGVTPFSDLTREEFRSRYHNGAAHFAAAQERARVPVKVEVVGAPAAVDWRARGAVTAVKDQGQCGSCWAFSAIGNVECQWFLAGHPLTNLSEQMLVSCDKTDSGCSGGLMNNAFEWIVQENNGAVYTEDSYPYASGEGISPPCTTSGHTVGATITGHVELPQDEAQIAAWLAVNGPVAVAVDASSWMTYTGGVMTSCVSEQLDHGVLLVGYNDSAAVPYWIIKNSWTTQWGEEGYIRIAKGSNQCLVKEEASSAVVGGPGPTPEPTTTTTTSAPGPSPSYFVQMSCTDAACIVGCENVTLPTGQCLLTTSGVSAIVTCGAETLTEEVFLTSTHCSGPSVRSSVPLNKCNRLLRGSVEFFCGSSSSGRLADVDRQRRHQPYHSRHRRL
Chain of Cruzipain (Trypanosoma cruzi) (P25779 123-467 limits assumed): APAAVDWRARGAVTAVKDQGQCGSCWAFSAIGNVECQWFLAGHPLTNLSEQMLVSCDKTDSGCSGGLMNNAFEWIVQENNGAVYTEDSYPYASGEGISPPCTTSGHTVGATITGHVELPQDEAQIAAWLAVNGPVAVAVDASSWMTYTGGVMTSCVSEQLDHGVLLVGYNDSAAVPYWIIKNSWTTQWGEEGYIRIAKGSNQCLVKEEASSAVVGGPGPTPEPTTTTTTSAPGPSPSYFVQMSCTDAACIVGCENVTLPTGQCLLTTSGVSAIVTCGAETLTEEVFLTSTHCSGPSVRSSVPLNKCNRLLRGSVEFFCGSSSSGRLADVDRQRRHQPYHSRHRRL

SMILES | cytotoxicity at 48 h, 50 µM [1] | cytotoxicity at 10 µM [2] | inhibition [3] | inhibition at 10 µM [4] | inhibition at 50 µM [5] | inhibition [6] | further results
O=C(NCCc1c[nH]c2ccccc12)c1cc2cc(I)ccc2oc1=O | 41% | 1% | 7% | 7% | 39% | 18% | –
O=C(Nc1ccccc1)c1cc2ccccc2oc1=O | 0% | 1% | 9% | 3% | 52% | 17% | –
CCN(CC)c1ccc2cc(/C(C)=N/NC(N)=S)c(=O)oc2c1 | 80% | 11% | 30% | 44% | 56% | 77% | IC50 [7]: 0.046 µM; CC50 at 48 h [8]: 42.7 µM
COc1cc(OC)c2cc(C(=O)NCc3ccccc3)c(=O)oc2c1 | 23% | 0% | – | 17% | 3% | – | –
C/C(=N\NC(N)=S)c1cc2ccccc2oc1=O | 11% | 0% | 97% | 49% | 40% | 88% | IC50 [9]: 0.073 µM; IC50 [7]: 0.068 µM
O=C(c1cc2cc(Cl)cc(Cl)c2oc1=O)N1CCN(c2ccccc2)CC1 | 12% | 5% | 6% | 25% | 24% | 12% | –
O=C(Cn1ccnc1[N+](=O)[O-])NCc1ccccc1 [BENZNIDAZOLE] | – | 0% | – | 77% | – | – | –
CC(C)C[C@H](NC(=O)[C@H]1O[C@@H]1C(=O)O)C(=O)NCCCCN=C(N)N | – | – | – | – | – | 99% | –
C/C(=N\NC(N)=S)c1cc2ccc(C)cc2oc1=O | 10% | 0% | 98% | 52% | 23% | 97% | IC50 [9]: 0.022 µM; Ratio IC50 [10]: 72; IC50 [7]: 0.2 µM; Ratio IC50 [11]: 92; CC50 at 48 h [8]: 114 µM
N=C(N)c1ccc(OCCCCCOc2ccc(C(=N)N)cc2)cc1 [PENTAMIDINE] | – | – | – | – | 100% | – | –
COc1ccc2cc(C(=O)N3CCN(c4ccccc4)CC3)c(=O)oc2c1 | 11% | 1% | 5% | 27% | 43% | 29% | –
C/C(=N\NC(N)=S)c1cc2cc(Br)ccc2oc1=O | 13% | 12% | 92% | 57% | 71% | 87% | IC50 [9]: 0.698 µM; selectivity ratio [12]: ~1.2; IC50 [7]: 0.145 µM; EC50 [13]: 43.6 µM; CC50 at 48 h [8]: 52.3 µM
COc1ccc2cc(C(=O)NCc3ccccc3)c(=O)oc2c1 | 1% | 0% | – | 21% | 45% | – | –
CC(C)C[C@H](NC(=O)[C@H](Cc1ccccc1)NC(=O)c1cnccn1)B(O)O [BORTEZOMIB] | 100% | – | – | – | – | – | –
COc1ccc2cc(C(=O)NCCc3c[nH]c4ccccc34)c(=O)oc2c1 | 81% | 0% | – | 27% | 59% | – | CC50 at 48 h [8]: 32.1 µM
COc1cc(OC)c2cc(C(=O)N3CCN(c4ccccc4)CC3)c(=O)oc2c1 | 18% | 0% | 3% | 2% | 15% | 24% | –
O=C(NCCc1c[nH]c2ccccc12)c1cc2cc(Cl)cc(Cl)c2oc1=O | 17% | 0% | 22% | 23% | 44% | 9% | –
COc1cc(OC)c2cc(C(=O)NCCc3c[nH]c4ccccc34)c(=O)oc2c1 | 31% | 0% | 25% | 13% | 43% | 15% | –
COc1cccc2cc(/C(C)=N/NC(N)=S)c(=O)oc12 | – | – | – | – | – | – | IC50 [14]: 2 µM; EC50 [15]: 5.5 µM; IC50 [16]: 14.4 µM
O=C(NCc1ccccc1)c1cc2ccccc2oc1=O | 3% | 10% | 1% | 6% | 38% | 7% | –
O=C(NCCc1c[nH]c2ccccc12)c1cc2ccccc2oc1=O | 76% | 16% | 10% | 24% | 63% | 25% | CC50 at 48 h [8]: 19.6 µM
O=C(c1cc2cc(I)ccc2oc1=O)N1CCN(c2ccccc2)CC1 | 13% | 0% | 2% | 5% | 12% | 19% | –
O=C(c1cc2ccccc2oc1=O)N1CCN(c2ccccc2)CC1 | 11% | 0% | 48% | 8% | 17% | 34% | –
